Assay results published in patent US20230146455A1, “TREATMENT OF INFLAMMATORY DISEASES WITH PEPTIDES AND PHARMACEUTICAL COMPOSITIONS” (Yuyu Pharma, Inc., priority 2020, published 2023).
“And” between values parts separate entries of the source, which are not always exact repeats. Equal entries are not always repeated. Where a SMILES comes first, the peptide text is derived from it. [ ]: non-standard residue; d: D form. Hyp = O=C(O)[C@@H]1C[C@@H](O)CN1

Assays:
Type in all cases: cell-based, human
MMP-3 = assay: Example 8 main study Luminex, LPS hPBMCs: MMP-3; settings: for MMP-3 Concentration: single replicates
Description: (§1) Human PBMCs were pretreated with YY-101, YDE-011, YDE-043 or reference compound; Xiidra® at various concentration (ranging from […] to 500 nM) for 2 h before stimulation. An equal volume of 0.5% DMSO was used as a vehicle control. Then, the cells were treated with LPS at 5 ug/ml, which was selected based on the pilot study. The supernatants from treated cells were harvested at 24 h and placed in a 96 well for Luminex cytokine & chemokine profiling using a Luminex 200 multiplex assay (Luminex; R&D system, USA).
(§2) The main study arm with triplicate wells per group in a 24-well plate: • 1. Blank • 2. PBMC: 0.5% DMSO • 3. PBMC+LPS (5 ug/ml) • 4. PBMC+YY-101 500 nM • 5. PBMC+YY-101 50 nM • 6. PBMC+YY-101 5 nM • 7. PBMC+YY-101 0.5 nM • 8. PBMC+LPS (5 ug/ml)+Xiidra® 500 nM • 9. PBMC+LPS (5 ug/ml)+Xiidra® 50 nM • 10. PBMC+LPS (5 ug/ml)+Xiidra® 5 nM • 11. PBMC+LPS (5 ug/ml)+Xiidra® 0.5 nM • 12. PBMC+LPS (5 ug/ml)+Xiidra® 0.05 nM • 13. PBMC+LPS (5 ug/ml)+Xiidra® 0.005 nM • 14. PBMC+LPS (5 ug/ml)+YY-101 500 nM • 15. PBMC+LPS (5 ug/ml)+YY-101 50 nM • 16. PBMC+LPS (5 ug/ml)+YY-101 5 nM • 17. PBMC+LPS (5 ug/ml)+YY-101 0.5 nM • 18. PBMC+LPS (5 ug/ml)+YY-101 0.05 nM • 19. PBMC+LPS (5 ug/ml)+YY-101 0.005 nM • 20. PBMC+LPS (5 ug/ml)+YDE-011 500 nM • 21. PBMC+LPS (5 ug/ml)+YDE-011 50 nM • 22. PBMC+LPS (5 ug/ml)+YDE-011 5 nM • 23. PBMC+LPS (5 ug/ml)+YDE-011 0.5 nM • 24. PBMC+LPS (5 ug/ml)+YDE-011 0.05 nM • 25. PBMC+LPS (5 ug/ml)+YDE-011 0.005 nM • 26. PBMC+LPS (5 ug/ml)+YDE-043 500 nM • 27. PBMC+LPS (5 ug/ml)+YDE-043 50 nM • 28. PBMC+LPS (5 ug/ml)+YDE-043 5 nM • 29. PBMC+LPS (5 ug/ml)+YDE-043 0.5 nM • 30. PBMC+LPS (5 ug/ml)+YDE-043 0.05 nM • 31. PBMC+LPS (5 ug/ml)+YDE-043 0.005 nM
(§3) Multiplex assay was used to measure 30 cytokines and chemokines. The 1:200 diluted cell supernatant and serial dilution of the standard were dispensed into a 96 well plate at 50 ul/well. Then, the pre-mixed cocktail of antibody-coated magnetic beads was dispensed at 50 ul/well and incubated at room temperature for 2 h in a horizontal orbital microplate shaker at 800±500 rpm. The beads were washed using a magnetic device to prevent loss. The biotin-antibody was dispensed in 50 ul of each well and incubated at room temperature for 1 h in a shaker at 800±500 rpm. After washing, streptavidin-PE was added at 50 ul/well and incubated at room temperature for 30 min in a shaker under the same conditions. Finally, after washing, wash buffer (100 ul/well) was added to the plate and incubated in a shaker for 2 min. The Luminex™ 200 setting were set according to the manufacturer's protocol. The data was calculated with a standard five-parameter logistic nonlinear regression analysis of the data (xPonent software 4.2, USA). Results were presented as concentration (ng/ml or pg/ml).

IL-8/CXCL8 = assay: Example 8 main study Luminex, LPS hPBMCs: IL-8/CXCL8
Description: as §1, §2, §3

IL-10 = assay: Example 8 main study Luminex, LPS hPBMCs: IL-10; settings: for IL-10 Concentration: individual replicates; for IL-10 Concentration (pg/ml), Mean: mean of replicates
Description: as §1, §2, §3

[1] = PBMC + LPS(5 ug/ml) + YY101 0.005 nM
[2] = PBMC + LPS(5 ug/ml) + YY101 0.05 nM
[3] = PBMC + LPS(5 ug/ml) + YY101 0.5 nM
[4] = PBMC + LPS(5 ug/ml) + YY101 5 nM
[5] = PBMC + LPS(5 ug/ml) + YY101 50 nM
[6] = PBMC + LPS(5 ug/ml) + YY101 500 nM
[7] = at as low as 5 μM, LPS 5 ug/mL 24 hrs
[8] = PBMC + LPS(5 ug/ml) + test article 0.005 nM
[9] = PBMC + LPS(5 ug/ml) + test article 0.05 nM
[10] = PBMC + LPS(5 ug/ml) + test article 0.5 nM
[11] = PBMC + LPS(5 ug/ml) + test article 5 nM
[12] = PBMC + LPS(5 ug/ml) + test article 50 nM
[13] = PBMC + LPS(5 ug/ml) + test article 500 nM

CC(C)C[C@H](NC(=O)CNC(=O)[C@H](CC(=O)O)NC(=O)[C@H](CCC(N)=O)NC(=O)CNC(=O)[C@@H]1C[C@@H](O)CN1)C(=O)N[C@@H](C)C(=O)NCC(=O)N1CCC[C@H]1C(=O)N[C@@H](CCCCN)C(=O)O [YY-101] (H-[Hyp]GQDGLAGPK-OH; N-terminus and C-terminus assumed)
MMP-3 Concentration, Mean (MMP-3; [1]): 7549.8 pg/mL
MMP-3 Concentration (MMP-3; [1]): 7549.7 pg/mL and 7474.3 pg/mL and 7625.3 pg/mL
MMP-3 Concentration, Mean (MMP-3; [2]): 8082.3 pg/mL
MMP-3 Concentration (MMP-3; [2]): 7776.9 pg/mL and 8541.1 pg/mL and 7928.9 pg/mL
MMP-3 Concentration, Mean (MMP-3; [3]): 7751.6 pg/mL
MMP-3 Concentration (MMP-3; [3]): 7701.1 pg/ml and 7776.9 pg/ml (2×)
MMP-3 Concentration, Mean (MMP-3; [4]): 7905.9 pg/mL
MMP-3 Concentration (MMP-3; [4]): 7549.7 pg/ml (2×) and 8618.2 pg/ml
MMP-3 Concentration, Mean (MMP-3; [5]): 7777.4 pg/mL
MMP-3 Concentration (MMP-3; [5]): 7549.7 pg/mL and 7701.1 pg/mL and 8081.3 pg/mL
MMP-3 Concentration, Mean (MMP-3; [6]): 7752.0 pg/mL
MMP-3 Concentration (MMP-3; [6]): 8043.1 pg/mL and 7663.2 pg/mL and 7549.7 pg/mL
MMP-3 Concentration, Mean (MMP-3; PBMC + YY101 0.5 nM, no LPS): 6246.3 pg/mL
MMP-3 Concentration (MMP-3; PBMC + YY101 0.5 nM, no LPS): 6062.8 pg/mL and 6429.9 pg/mL
MMP-3 Concentration, Mean (MMP-3; PBMC + YY101 5 nM, no LPS): 6246.0 pg/mL
MMP-3 Concentration (MMP-3; PBMC + YY101 5 nM, no LPS): 6172.6 pg/mL and 6319.4 pg/mL
MMP-3 Concentration, Mean (MMP-3; PBMC + YY101 0.05 uM, no LPS): 6374.8 pg/mL
MMP-3 Concentration (MMP-3; PBMC + YY101 0.05 uM, no LPS): 6503.7 pg/mL and 6245.9 pg/mL
MMP-3 Concentration, Mean (MMP-3; PBMC + YY101 50 nM, no LPS): 6118.0 pg/mL
MMP-3 Concentration (MMP-3; PBMC + YY101 50 nM, no LPS): 6282.7 pg/mL and 5953.3 pg/mL
MMP-3 Concentration, Mean (MMP-3; PBMC + YY101 500 nM, no LPS): 6356.3 pg/mL
MMP-3 Concentration (MMP-3; PBMC + YY101 500 nM, no LPS): 6282.7 pg/mL and 6429.9 pg/mL
LPS-induced MMP3 (in words) (MMP-3; [7]): significantly reduced
IL-8/CXCL8 Concentration, Mean (IL-8/CXCL8; [8]): 58481.9 pg/mL
IL-8/CXCL8 Concentration (IL-8/CXCL8; PBMC + LPS(5 ug/ml) + test article 0.005 nM, single replicates (1st, 2nd, 3rd)): 61546.6 pg/mL and 56884.9 pg/mL and 57014.3 pg/mL
IL-8/CXCL8 Concentration, Mean (IL-8/CXCL8; [9]): 59990.6 pg/mL
IL-8/CXCL8 Concentration (IL-8/CXCL8; PBMC + LPS(5 ug/ml) + test article 0.05 nM, single replicates (1st, 2nd, 3rd)): 57359.8 pg/mL and 60536.4 pg/mL and 62075.6 pg/mL
IL-8/CXCL8 Concentration, Mean (IL-8/CXCL8; [10]): 60251.0 pg/mL
IL-8/CXCL8 Concentration (IL-8/CXCL8; PBMC + LPS(5 ug/ml) + test article 0.5 nM, single replicates (1st, 2nd, 3rd)): 60909.2 pg/mL and 57900.7 pg/mL and 61943.2 pg/mL
IL-8/CXCL8 Concentration, Mean (IL-8/CXCL8; [11]): 57315.8 pg/mL
IL-8/CXCL8 Concentration (IL-8/CXCL8; PBMC + LPS(5 ug/ml) + test article 5 nM, single replicates (1st, 2nd, 3rd)): 55583.6 pg/mL and 55980.8 pg/mL and 60383.1 pg/mL
IL-8/CXCL8 Concentration, Mean (IL-8/CXCL8; [12]): 54680.4 pg/mL
IL-8/CXCL8 Concentration (IL-8/CXCL8; PBMC + LPS(5 ug/ml) + test article 50 nM, single replicates (1st, 2nd, 3rd)): 54759.1 pg/mL and 53065.0 pg/mL and 56217.2 pg/mL
IL-8/CXCL8 Concentration, Mean (IL-8/CXCL8; [13]): 58292.3 pg/mL
IL-8/CXCL8 Concentration (IL-8/CXCL8; PBMC + LPS(5 ug/ml) + test article 500 nM, single replicates (1st, 2nd, 3rd)): 60492.6 pg/mL and 59945.6 pg/mL and 54438.6 pg/mL
IL-8/CXCL8 Concentration, Mean (IL-8/CXCL8; PBMC + test article 0.5 nM, no LPS): 3635.9 pg/mL
IL-8/CXCL8 Concentration (IL-8/CXCL8; PBMC + test article 0.5 nM, no LPS, single replicates (1st, 2nd)): 1970.8 pg/mL and 5300.9 pg/mL
IL-8/CXCL8 Concentration, Mean (IL-8/CXCL8; PBMC + test article 5 nM, no LPS): 2809.1 pg/mL
IL-8/CXCL8 Concentration (IL-8/CXCL8; PBMC + test article 5 nM, no LPS, single replicates (1st, 2nd)): 3848.8 pg/mL and 1769.4 pg/mL
IL-8/CXCL8 Concentration, Mean (IL-8/CXCL8; PBMC + test article 0.05 uM, no LPS): 8117.7 pg/mL
IL-8/CXCL8 Concentration (IL-8/CXCL8; PBMC + test article 0.05 uM, no LPS, single replicates (1st, 2nd)): 13586.7 pg/mL and 2648.7 pg/mL
IL-8/CXCL8 Concentration, Mean (IL-8/CXCL8; PBMC + test article 50 nM, no LPS): 1630.9 pg/mL
IL-8/CXCL8 Concentration (IL-8/CXCL8; PBMC + test article 50 nM, no LPS, single replicates (1st, 2nd)): 2009.8 pg/mL and 1252.1 pg/mL
IL-8/CXCL8 Concentration, Mean (IL-8/CXCL8; PBMC + test article 500 nM, no LPS): 1641.8 pg/mL
IL-8/CXCL8 Concentration (IL-8/CXCL8; PBMC + test article 500 nM, no LPS, single replicates (1st, 2nd)): 1297.1 pg/mL and 1986.4 pg/mL
LPS-induced IL-8 (in words) (IL-8/CXCL8; [7]): significantly reduced
IL-10 Concentration (IL-10; [8]): 832.3 pg/mL and 677.1 pg/mL and 780.9 pg/mL
IL-10 Concentration (pg/ml), Mean (IL-10; [8]): 763.4 pg/mL
IL-10 Concentration (IL-10; [9]): 806.6 pg/mL and 1121.8 pg/mL and 883.3 pg/mL
IL-10 Concentration (pg/ml), Mean (IL-10; [9]): 937.2 pg/mL
IL-10 Concentration (IL-10; [10]): 870.5 pg/mL and 703.2 pg/mL and 716.2 pg/mL
IL-10 Concentration (pg/ml), Mean (IL-10; [10]): 763.3 pg/mL
IL-10 Concentration (IL-10; [11]): 857.8 pg/mL and 934.0 pg/mL and 1009.5 pg/mL
IL-10 Concentration (pg/ml), Mean (IL-10; [11]): 933.8 pg/mL
IL-10 Concentration (IL-10; [12]): 651.0 pg/mL and 845.0 pg/mL and 793.8 pg/mL
IL-10 Concentration (pg/ml), Mean (IL-10; [12]): 763.3 pg/mL
IL-10 Concentration (IL-10; [13]): 832.3 pg/mL and 883.3 pg/mL and 755.1 pg/mL
IL-10 Concentration (pg/ml), Mean (IL-10; [13]): 823.5 pg/mL
IL-10 Concentration (IL-10; PBMC + test article 0.5 nM, no LPS, dilution 200): <2.59 pg/mL
IL-10 Concentration (IL-10; PBMC + test article 5 nM, no LPS, dilution 200): <2.59 pg/mL
IL-10 Concentration (IL-10; PBMC + test article 0.05 uM, no LPS, dilution 200): <2.59 pg/mL
IL-10 Concentration (IL-10; PBMC + test article 50 nM, no LPS, dilution 200): <2.59 pg/mL
IL-10 Concentration (IL-10; PBMC + test article 500 nM, no LPS, dilution 200): <2.59 pg/mL
LPS-induced IL-10 (in words) (IL-10; [7]): significantly reduced
